Key:
[1] = molecular target: Voltage-gated inwardly rectifying potassium channel KCNH2 (Homo sapiens, UniProt Q12809); format: functional; conditions: read-out: AC50
[2] = molecular target: T1, Progesterone receptor (Homo sapiens, UniProt P06401)
T1 sequence (P06401 whole entry): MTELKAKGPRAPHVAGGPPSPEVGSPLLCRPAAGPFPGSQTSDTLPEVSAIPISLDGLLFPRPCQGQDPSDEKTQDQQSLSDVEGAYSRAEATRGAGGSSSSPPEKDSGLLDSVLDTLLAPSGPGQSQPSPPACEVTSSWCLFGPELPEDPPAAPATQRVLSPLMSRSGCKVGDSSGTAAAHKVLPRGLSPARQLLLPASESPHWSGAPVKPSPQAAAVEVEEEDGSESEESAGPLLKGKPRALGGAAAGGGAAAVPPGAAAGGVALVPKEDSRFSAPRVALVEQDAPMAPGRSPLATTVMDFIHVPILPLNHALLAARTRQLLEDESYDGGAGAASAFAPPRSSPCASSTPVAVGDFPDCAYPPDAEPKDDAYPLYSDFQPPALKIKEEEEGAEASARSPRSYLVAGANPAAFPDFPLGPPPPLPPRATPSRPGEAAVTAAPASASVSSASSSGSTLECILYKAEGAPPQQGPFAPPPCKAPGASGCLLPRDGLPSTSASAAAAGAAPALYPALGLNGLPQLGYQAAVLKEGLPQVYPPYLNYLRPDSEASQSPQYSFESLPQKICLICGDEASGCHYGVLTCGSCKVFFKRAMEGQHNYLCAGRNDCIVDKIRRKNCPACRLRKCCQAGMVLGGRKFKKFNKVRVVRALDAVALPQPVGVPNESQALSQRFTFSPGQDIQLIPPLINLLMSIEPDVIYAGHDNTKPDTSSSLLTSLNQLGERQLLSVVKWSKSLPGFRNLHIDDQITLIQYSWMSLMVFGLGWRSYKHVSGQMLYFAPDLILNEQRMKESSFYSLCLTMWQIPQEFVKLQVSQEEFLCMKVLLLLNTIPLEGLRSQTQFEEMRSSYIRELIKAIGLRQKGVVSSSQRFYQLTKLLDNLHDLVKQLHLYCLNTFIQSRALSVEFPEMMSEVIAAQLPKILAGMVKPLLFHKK

[3] = molecular target: T2, Androgen receptor (Homo sapiens, UniProt P10275)
T2 sequence (P10275 whole entry): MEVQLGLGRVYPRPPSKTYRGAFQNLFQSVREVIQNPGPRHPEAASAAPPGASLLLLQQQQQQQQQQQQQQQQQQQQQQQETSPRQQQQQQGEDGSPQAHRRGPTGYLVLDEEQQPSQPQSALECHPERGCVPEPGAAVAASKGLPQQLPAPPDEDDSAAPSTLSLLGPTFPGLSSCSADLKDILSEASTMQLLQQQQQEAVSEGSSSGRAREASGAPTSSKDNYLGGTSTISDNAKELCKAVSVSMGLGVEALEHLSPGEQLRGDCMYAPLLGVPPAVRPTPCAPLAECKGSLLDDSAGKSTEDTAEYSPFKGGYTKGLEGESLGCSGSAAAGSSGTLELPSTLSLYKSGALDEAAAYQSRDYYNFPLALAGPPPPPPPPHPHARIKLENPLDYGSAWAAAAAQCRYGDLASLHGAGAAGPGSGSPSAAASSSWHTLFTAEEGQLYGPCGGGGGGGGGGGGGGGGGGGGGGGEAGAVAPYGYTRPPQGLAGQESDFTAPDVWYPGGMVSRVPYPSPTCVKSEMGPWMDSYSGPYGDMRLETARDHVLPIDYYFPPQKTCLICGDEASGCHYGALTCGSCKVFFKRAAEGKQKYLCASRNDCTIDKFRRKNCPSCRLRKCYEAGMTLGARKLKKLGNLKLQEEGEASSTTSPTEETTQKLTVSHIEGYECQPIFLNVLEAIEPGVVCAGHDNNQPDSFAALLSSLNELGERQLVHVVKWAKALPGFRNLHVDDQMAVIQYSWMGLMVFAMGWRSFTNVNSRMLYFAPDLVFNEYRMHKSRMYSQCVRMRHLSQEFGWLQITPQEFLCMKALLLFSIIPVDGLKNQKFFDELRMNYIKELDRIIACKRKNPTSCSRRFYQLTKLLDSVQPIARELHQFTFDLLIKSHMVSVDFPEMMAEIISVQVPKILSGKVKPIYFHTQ

[4] = molecular target: 5-hydroxytryptamine receptor 2B (Homo sapiens, UniProt P41595); format: functional, cell-based
[5] = molecular target: Vascular endothelial growth factor receptor 2 (Homo sapiens, UniProt P35968); format: functional
[6] = molecular target: cGMP-inhibited 3',5'-cyclic phosphodiesterase 3A (Homo sapiens, UniProt Q14432); format: functional
[7] = molecular target: Sodium-dependent noradrenaline transporter (Homo sapiens, UniProt P23975)
[8] = molecular target: Histamine H3 receptor (Homo sapiens, UniProt Q9Y5N1)
[9] = molecular target: Gamma-aminobutyric acid receptor subunit alpha-1/alpha-2/beta-2/gamma-2 (Homo sapiens, UniProt P14867+P18507+P47869+P47870); format: protein-complex assay
[10] = molecular target: D(3) dopamine receptor (Homo sapiens, UniProt P35462)
[11] = molecular target: 3',5'-cyclic-AMP phosphodiesterase 4A (Homo sapiens, UniProt P27815); format: functional
[12] = molecular target: Gamma-aminobutyric acid receptor subunit alpha-1 (Rattus norvegicus, UniProt P62813)
Note: assay procedure not described here.

Sequence of Vascular endothelial growth factor receptor 2 (P35968 whole entry): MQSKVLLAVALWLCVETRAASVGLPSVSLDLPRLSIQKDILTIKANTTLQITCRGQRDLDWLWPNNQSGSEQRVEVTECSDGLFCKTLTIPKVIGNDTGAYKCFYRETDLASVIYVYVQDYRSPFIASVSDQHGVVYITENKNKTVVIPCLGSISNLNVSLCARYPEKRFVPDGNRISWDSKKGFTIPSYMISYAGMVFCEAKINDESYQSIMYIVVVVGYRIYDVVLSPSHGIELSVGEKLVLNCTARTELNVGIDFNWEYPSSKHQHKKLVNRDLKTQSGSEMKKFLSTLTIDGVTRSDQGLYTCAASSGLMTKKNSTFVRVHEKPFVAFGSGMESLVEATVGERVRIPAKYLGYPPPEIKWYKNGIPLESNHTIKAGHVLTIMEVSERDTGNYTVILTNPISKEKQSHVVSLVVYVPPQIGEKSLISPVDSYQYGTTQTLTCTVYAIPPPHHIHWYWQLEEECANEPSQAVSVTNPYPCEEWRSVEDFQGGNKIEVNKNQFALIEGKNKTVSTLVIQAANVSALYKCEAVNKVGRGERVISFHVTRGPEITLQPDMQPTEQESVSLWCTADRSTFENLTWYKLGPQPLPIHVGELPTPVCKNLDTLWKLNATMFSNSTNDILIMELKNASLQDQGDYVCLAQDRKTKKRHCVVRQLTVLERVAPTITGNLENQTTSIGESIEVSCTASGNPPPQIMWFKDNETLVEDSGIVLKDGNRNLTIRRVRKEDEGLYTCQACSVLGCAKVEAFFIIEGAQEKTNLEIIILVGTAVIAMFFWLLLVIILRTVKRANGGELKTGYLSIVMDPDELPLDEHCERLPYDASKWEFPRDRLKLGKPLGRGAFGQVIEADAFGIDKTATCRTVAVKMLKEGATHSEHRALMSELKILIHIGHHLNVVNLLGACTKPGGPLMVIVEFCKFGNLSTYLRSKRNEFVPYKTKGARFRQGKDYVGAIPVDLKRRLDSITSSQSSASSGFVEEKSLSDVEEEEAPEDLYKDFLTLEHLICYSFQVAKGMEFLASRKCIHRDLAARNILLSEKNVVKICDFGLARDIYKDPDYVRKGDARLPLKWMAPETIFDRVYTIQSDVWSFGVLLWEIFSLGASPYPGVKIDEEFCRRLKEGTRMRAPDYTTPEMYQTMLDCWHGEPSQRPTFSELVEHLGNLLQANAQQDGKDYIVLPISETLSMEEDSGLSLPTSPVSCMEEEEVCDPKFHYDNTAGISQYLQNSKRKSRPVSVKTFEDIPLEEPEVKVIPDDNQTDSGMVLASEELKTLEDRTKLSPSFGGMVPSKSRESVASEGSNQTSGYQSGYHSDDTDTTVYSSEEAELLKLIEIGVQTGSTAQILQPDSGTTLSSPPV
Sequence of Voltage-gated inwardly rectifying potassium channel KCNH2 (Q12809 whole entry): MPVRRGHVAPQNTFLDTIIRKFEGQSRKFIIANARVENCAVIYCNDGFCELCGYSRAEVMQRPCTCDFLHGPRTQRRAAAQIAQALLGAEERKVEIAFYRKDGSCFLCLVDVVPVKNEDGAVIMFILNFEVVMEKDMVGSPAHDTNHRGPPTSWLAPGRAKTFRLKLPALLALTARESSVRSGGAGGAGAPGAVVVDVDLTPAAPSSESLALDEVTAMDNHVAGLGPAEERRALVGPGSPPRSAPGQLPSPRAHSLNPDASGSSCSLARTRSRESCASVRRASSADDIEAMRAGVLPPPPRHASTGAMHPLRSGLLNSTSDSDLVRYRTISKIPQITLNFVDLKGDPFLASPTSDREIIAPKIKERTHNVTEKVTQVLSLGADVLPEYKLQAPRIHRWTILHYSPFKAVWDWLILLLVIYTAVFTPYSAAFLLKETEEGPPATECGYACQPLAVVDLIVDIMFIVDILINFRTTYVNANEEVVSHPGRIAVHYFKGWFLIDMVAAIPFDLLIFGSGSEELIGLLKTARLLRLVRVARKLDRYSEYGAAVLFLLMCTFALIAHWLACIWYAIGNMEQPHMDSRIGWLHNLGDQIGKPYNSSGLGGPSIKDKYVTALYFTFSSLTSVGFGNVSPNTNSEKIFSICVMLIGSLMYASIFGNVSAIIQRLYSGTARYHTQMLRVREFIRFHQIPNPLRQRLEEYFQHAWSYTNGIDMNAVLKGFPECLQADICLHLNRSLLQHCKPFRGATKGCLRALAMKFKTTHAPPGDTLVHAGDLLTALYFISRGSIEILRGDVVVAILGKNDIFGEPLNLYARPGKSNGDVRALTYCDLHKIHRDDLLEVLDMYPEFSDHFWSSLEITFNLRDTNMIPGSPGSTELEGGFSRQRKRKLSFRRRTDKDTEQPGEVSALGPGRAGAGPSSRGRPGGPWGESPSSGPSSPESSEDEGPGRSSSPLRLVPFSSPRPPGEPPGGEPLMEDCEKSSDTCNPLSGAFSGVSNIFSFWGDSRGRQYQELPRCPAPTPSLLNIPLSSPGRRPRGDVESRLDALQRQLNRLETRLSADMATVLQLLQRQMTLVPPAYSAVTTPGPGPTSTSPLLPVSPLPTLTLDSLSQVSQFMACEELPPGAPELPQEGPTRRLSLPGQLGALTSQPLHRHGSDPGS
Sequence of Histamine H3 receptor (Q9Y5N1 whole entry): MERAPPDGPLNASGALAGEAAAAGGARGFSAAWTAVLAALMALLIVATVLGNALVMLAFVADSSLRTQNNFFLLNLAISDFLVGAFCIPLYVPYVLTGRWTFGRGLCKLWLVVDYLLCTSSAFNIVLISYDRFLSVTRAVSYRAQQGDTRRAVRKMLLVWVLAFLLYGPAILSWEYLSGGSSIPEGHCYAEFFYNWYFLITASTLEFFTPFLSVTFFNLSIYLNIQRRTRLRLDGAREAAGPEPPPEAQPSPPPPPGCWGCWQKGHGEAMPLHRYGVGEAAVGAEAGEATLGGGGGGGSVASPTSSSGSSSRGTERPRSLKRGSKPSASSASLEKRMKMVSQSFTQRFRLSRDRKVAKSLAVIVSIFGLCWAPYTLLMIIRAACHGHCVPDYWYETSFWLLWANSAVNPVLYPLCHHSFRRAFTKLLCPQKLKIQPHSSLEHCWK
Sequence of D(3) dopamine receptor (P35462 whole entry): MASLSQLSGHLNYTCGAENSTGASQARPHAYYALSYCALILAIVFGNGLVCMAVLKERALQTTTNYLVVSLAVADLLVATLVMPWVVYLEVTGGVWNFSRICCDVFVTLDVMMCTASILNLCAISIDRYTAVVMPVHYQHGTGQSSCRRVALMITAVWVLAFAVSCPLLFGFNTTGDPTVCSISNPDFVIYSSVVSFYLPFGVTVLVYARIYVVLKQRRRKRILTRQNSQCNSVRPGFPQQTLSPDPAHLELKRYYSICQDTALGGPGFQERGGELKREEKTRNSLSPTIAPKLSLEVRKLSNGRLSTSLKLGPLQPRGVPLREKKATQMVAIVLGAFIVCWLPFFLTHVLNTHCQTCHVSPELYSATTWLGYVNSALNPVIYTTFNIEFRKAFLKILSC
Sequence of 3',5'-cyclic-AMP phosphodiesterase 4A (P27815 whole entry): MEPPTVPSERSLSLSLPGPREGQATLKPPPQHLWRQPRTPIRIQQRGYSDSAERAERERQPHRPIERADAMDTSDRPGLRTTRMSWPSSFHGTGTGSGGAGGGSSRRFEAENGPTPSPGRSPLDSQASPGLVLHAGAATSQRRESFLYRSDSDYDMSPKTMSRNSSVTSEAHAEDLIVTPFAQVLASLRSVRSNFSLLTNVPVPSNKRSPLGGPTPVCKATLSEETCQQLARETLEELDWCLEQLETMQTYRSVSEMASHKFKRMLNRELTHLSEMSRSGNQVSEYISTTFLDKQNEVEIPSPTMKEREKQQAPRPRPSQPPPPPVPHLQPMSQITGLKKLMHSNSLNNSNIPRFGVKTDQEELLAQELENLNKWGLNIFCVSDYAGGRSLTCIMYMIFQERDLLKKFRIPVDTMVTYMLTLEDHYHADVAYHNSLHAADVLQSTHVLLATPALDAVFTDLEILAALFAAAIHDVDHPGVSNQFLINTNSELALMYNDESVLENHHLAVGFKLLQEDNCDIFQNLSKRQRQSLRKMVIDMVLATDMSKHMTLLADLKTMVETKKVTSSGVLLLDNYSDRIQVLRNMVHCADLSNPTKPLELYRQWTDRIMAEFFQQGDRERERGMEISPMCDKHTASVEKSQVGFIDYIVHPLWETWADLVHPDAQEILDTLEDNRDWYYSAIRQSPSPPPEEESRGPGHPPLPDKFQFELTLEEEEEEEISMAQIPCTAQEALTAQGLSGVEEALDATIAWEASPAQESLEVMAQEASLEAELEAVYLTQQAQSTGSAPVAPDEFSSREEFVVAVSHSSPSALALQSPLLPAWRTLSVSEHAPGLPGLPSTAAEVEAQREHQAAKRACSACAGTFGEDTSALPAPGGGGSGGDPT
Sequence of Sodium-dependent noradrenaline transporter (P23975 whole entry): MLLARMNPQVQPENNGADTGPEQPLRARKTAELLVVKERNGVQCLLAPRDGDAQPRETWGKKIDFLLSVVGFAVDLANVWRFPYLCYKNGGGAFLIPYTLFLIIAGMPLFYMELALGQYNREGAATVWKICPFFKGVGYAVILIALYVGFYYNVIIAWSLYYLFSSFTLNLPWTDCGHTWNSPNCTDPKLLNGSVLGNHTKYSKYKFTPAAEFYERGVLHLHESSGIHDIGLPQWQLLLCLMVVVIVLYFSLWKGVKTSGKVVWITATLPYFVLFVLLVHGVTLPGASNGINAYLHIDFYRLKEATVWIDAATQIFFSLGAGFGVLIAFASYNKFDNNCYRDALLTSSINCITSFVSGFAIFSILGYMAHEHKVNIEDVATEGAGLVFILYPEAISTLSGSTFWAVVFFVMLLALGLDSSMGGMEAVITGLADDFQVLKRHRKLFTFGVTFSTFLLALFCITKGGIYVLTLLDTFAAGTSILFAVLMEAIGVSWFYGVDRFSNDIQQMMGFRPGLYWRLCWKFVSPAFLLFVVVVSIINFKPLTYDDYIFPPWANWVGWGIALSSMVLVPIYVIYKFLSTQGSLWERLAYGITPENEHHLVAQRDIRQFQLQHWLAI

Compound	AC50 [1]	AC50 [2]	AC50 [3]	AC50 [4]	AC50 [5]	AC50 [6]	AC50 [7]	AC50 [8]	AC50 [9]	AC50 [10]	AC50 [11]	AC50 [12]
C[N+]1(CCCCC[N+]2(C)CCCC2)CCCC1 [PENTOLINIUM]	> 30 µM	> 30 µM	> 30 µM	> 30 µM	> 30 µM	> 30 µM	> 30 µM	> 30 µM	> 30 µM	> 30 µM	> 30 µM	–
CC(C)(C)N1CCC(c2ccccc2)(c2ccccc2)CC1 [BUDIPINE]	6.5 µM	> 30 µM	> 30 µM	> 30 µM	> 30 µM	> 30 µM	> 30 µM	> 30 µM	> 30 µM	> 30 µM	> 30 µM	–
CC(C)(C)NCC(O)COc1cccc2c1SCCC2 (configuration not stated) [TERTATOLOL]	> 30 µM	> 30 µM	> 30 µM	> 30 µM	> 30 µM	> 30 µM	29.6 µM	> 30 µM	> 30 µM	–	> 30 µM	–
CC(=O)OCC1=C(C(=O)O)N2C(=O)[C@@H](NC(=O)[C@H](N)c3ccccc3)[C@H]2SC1 [CEPHALOGLYCIN]	> 30 µM	> 30 µM	> 30 µM	> 30 µM	> 30 µM	> 30 µM	> 30 µM	> 30 µM	–	> 30 µM	> 30 µM	> 30 µM
OB1OCc2cc(F)ccc21 [TAVABOROLE]	> 30 µM	> 30 µM	> 30 µM	> 30 µM	> 30 µM	14.1 µM	> 30 µM	> 30 µM	> 30 µM	> 30 µM	> 30 µM	–
O=C(Nc1ccc(Cl)cc1)Nc1ccc(Cl)c(Cl)c1 [TRICLOCARBAN]	> 30 µM	> 30 µM	> 30 µM	> 30 µM	> 30 µM	11.6 µM	0.863 µM	> 30 µM	–	> 30 µM	25.4 µM	> 30 µM
Nc1ccc2cc3ccc(N)cc3nc2c1 [PROFLAVINE]	5 µM	> 30 µM	> 30 µM	> 30 µM	25.8 µM	> 30 µM	2.69 µM	16.3 µM	> 30 µM	22.9 µM	> 30 µM	–
Nc1ccc(S(=O)(=O)c2cnc(N)s2)cc1 [THIAZOLSULFONE]	> 30 µM	> 30 µM	> 30 µM	> 30 µM	> 30 µM	> 30 µM	> 30 µM	> 30 µM	–	> 30 µM	> 30 µM	> 30 µM
